Assay [1] concerns the target His-BIR2-3 (125-356, C202A/C213G, XIAP) (Homo sapiens (Human), UniProt P98170, C202A/C213G). The experiment in a line: XIAP-BIR2-3 Dimeric SMAC Peptide Homogeneous Time Resolved Fluorescence (HTRF) Assay. The assay is classed as binding. The settings on record: fluorescein labeled dimeric SMAC peptide. As to the method:
D. XIAP-BIR2-3 Dimeric SMAC Peptide Homogeneous Time Resolved Fluorescence (HTRF) Assay
(§1) Assays were performed in black, flat-bottom, 384-well plates.

Another assay concerns the target His-BIR3 (241-356, XIAP) (Homo sapiens (Human), UniProt P98170). Nature of the assay: XIAP-BIR3/SMAC Homogeneous Time Resolved Fluorescence (HTRF) Assay. The assay is classed as binding. The note with it: fluorescein labeled SMAC peptide. The method, then: B. XIAP-BIR3/SMAC Homogeneous Time Resolved Fluorescence (HTRF) Assay
as §1

On to `CN[C@@H](C)C(=O)N[C@H](C(=O)N1C[C@@H](NC(=O)c2ccc(C(=O)Nc3ccc4c(c3)CN(C(=O)[C@@H](NC(=O)[C@H](C)NC)C(C)(C)SCC(=O)N(C)C)[C@H](C(=O)N[C@@H]3CCCc5ccccc53)C4)cc2)C[C@H]1C(=O)N[C@@H]1CCCc2ccccc21)C(C)(C)C` [Example 64, N^1-((3S,5S)-1-((S)-3,3-Dimethyl-2-((S)-2-(methylamino)propanamido)butanoyl)-5-(((R)-1,2,3,4-tetrahydronaphthalen-1-yl)carbamoyl)pyrrolidin-3-yl)-N^4-((S)-2-((R)-3-((2-(dimethylamino)-2-oxoethyl)thio)-3-methyl-2-((S)-2-(methylamino)propanamido)butanoyl)-3-(((R)-1,2,3,4-tetrahydronaphthalen-1-yl)carbamoyl)-1,2,3,4-tetrahydroisoquinolin-7-yl)terephthalamide], for which the IC50 in assay [1] turned out to be 10 nM; against His-BIR3 (241-356, XIAP), 14 nM.
`CN[C@@H](C)C(=O)N[C@H](C(=O)N1C[C@@H](NC(=O)c2ccc(C(=O)Nc3ccc4c(c3)CN(C(=O)[C@@H](NC(=O)[C@H](C)NC)C(C)(C)SCC(=O)NCCO)[C@H](C(=O)N[C@@H]3CCCc5ccccc53)C4)cc2)C[C@H]1C(=O)N[C@@H]1CCCc2ccccc21)C(C)(C)C` [Example 63, N^1-((3S,5S)-1-((S)-3,3-Dimethyl-2-((S)-2-(methylamino)propanamido)butanoyl)-5-(((R)-1,2,3,4-tetrahydronaphthalen-1-yl)carbamoyl)pyrrolidin-3-yl)-N^4-((S)-2-((R)-3-((2-((2-hydroxyethyl)amino)-2-oxoethyl)thio)-3-methyl-2-((S)-2-(methylamino)propanamido)butanoyl)-3-(((R)-1,2,3,4-tetrahydronaphthalen-1-yl)carbamoyl)-1,2,3,4-tetrahydroisoquinolin-7-yl)terephthalamide]: the half-maximal inhibitory concentration (IC50) in assay [1] was 5 nM; against His-BIR3 (241-356, XIAP), 17 nM.
The corresponding values for `CN[C@@H](C)C(=O)N[C@H](C(=O)N1C[C@@H](NC(=O)c2ccc(C(=O)Nc3ccc4c(c3)CN(C(=O)[C@@H](NC(=O)[C@H](C)NC)C(C)(C)SC)[C@H](C(=O)N[C@@H]3CCCc5ccccc53)C4)cc2)C[C@H]1C(=O)N[C@@H]1CCCc2ccccc21)C(C)(C)C` [Example 55, N^1-((3S,5S)-1-((S)-3,3-Dimethyl-2-((S)-2-(methylamino)propanamido)butanoyl)-5-(((R)-1,2,3,4-tetrahydronaphthalen-1-yl)carbamoyl)pyrrolidin-3-yl)-N^4—((S)-2-((R)-3-methyl-2-((S)-2-(methylamino)propanamido)-3-(methylthio)butanoyl)-3-(((R)-1,2,3,4-tetrahydronaphthalen-1-yl)carbamoyl)-1,2,3,4-tetrahydroisoquinolin-7-yl)terephthalamide] are 4 nM and 9 nM.
As to `CN[C@@H](C)C(=O)N[C@H](C(=O)N1Cc2cc(NC(=O)c3ccc(C(=O)N[C@H]4C[C@@H](C(=O)N[C@@H]5CCCc6ccccc65)N(C(=O)[C@@H](NC(=O)[C@H](C)NC)C(C)(C)C)C4)cc3)ccc2C[C@H]1C(=O)N[C@H](C)c1ccccc1F)C(C)(C)C` [Example 11, N^1-((S)-2-((S)-3,3-Dimethyl-2-((S)-2-(methylamino)propanamido)butanoyl)-3-(((R)-1-(2-fluorophenyl)ethyl)carbamoyl)-1,2,3,4-tetrahydroisoquinolin-7-yl)-N^4-((3S,5S)-1-((S)-3,3-dimethyl-2-((S)-2-(methylamino)propanamido)butanoyl)-5-(((R)-1,2,3,4-tetrahydronaphthalen-1-yl)carbamoyl)pyrrolidin-3-yl)terephthalamide], the IC50 in assay [1] stood at 12 nM; against His-BIR3 (241-356, XIAP), 18 nM.
Taken in the same sequence, the figures for `CN[C@@H](C)C(=O)N[C@H](C(=O)N1C[C@@H](NC(=O)c2ccc(C(=O)Nc3ccc4c(c3)CN(C(=O)[C@@H](NC(=O)[C@H](C)NC)C(C)(C)SCC(=O)O)[C@H](C(=O)N[C@@H]3CCCc5ccccc53)C4)cc2)C[C@H]1C(=O)N[C@@H]1CCCc2ccccc21)C(C)(C)C` [Example 57, 2-(((R)-4-((S)-7-(4-(((3S,5S)-1-((S)-3,3-Dimethyl-2-((S)-2-(methylamino)propanamido)butanoyl)-5-(((R)-1,2,3,4-tetrahydronaphthalen-1-yl)carbamoyl)pyrrolidin-3-yl)carbamoyl)benzamido)-3-(((R)-1,2,3,4-tetrahydronaphthalen-1-yl)carbamoyl)-3,4-dihydroisoquinolin-2(1H)-yl)-2-methyl-3-((S)-2-(methylamino)propanamido)-4-oxobutan-2-yl)thio)acetic acid] were 6 nM and 10 nM.
Consider `CN[C@@H](C)C(=O)N[C@H](C(=O)N1Cc2cc(NC(=O)c3cccc4c3ccn4C(=O)N[C@H]3C[C@@H](C(=O)N[C@@H]4CCCc5ccccc54)N(C(=O)[C@@H](NC(=O)[C@H](C)NC)C(C)(C)C)C3)ccc2C[C@H]1C(=O)N[C@@H]1CCCc2ccccc21)C(C)(C)C` [Example 54, N^4-((S)-2-((S)-3,3-Dimethyl-2-((S)-2-(methylamino)propanamido)butanoyl)-3-(((R)-1,2,3,4-tetrahydronaphthalen-1-yl)carbamoyl)-1,2,3,4-tetrahydroisoquinolin-7-yl)-N^1-((3S,5S)-1-((S)-3,3-dimethyl-2-((S)-2-(methylamino)propanamido)butanoyl)-5-(((R)-1,2,3,4-tetrahydronaphthalen-1-yl)carbamoyl)pyrrolidin-3-yl)-1H-indole-1,4-dicarboxamide], for which the IC50 in assay [1] came to 21 nM; against His-BIR3 (241-356, XIAP) it was 76 nM.
The corresponding values for `CN[C@@H](C)C(=O)N[C@H](C(=O)N1C[C@@H](NC(=O)c2ccc(C(=O)Nc3ccc4c(c3)CN(C(=O)[C@@H](NC(=O)[C@H](C)NC)C(C)(C)SCC(=O)N3CCOCC3)[C@H](C(=O)N[C@@H]3CCCc5ccccc53)C4)cc2)C[C@H]1C(=O)N[C@@H]1CCCc2ccccc21)C(C)(C)C` [Example 61, N^1-((3S,5S)-1-((S)-3,3-Dimethyl-2-((S)-2-(methylamino)propanamido)butanoyl)-5-(((R)-1,2,3,4-tetrahydronaphthalen-1-yl)carbamoyl)pyrrolidin-3-yl)-N^4-((S)-2-((R)-3-methyl-2-((S)-2-(methylamino)propanamido)-3-((2-morpholino-2-oxoethyl)thio)butanoyl)-3-(((R)-1,2,3,4-tetrahydronaphthalen-1-yl)carbamoyl)-1,2,3,4-tetrahydroisoquinolin-7-yl)terephthalamide] are 16 nM and 31 nM.
`CN[C@@H](C)C(=O)N[C@H](C(=O)N1C[C@@H](NC(=O)c2ccc(C(=O)Nc3ccc4c(c3)CN(C(=O)[C@@H](NC(=O)[C@H](C)NC)C(C)(C)SCC(=O)N3CCCCC3)[C@H](C(=O)N[C@@H]3CCCc5ccccc53)C4)cc2)C[C@H]1C(=O)N[C@@H]1CCCc2ccccc21)C(C)(C)C` [Example 58, N^1-((3S,5S)-1-((S)-3,3-Dimethyl-2-((S)-2-(methylamino)propanamido)butanoyl)-5-(((R)-1,2,3,4-tetrahydronaphthalen-1-yl)carbamoyl)pyrrolidin-3-yl)-N^4—((S)-2-((R)-3-methyl-2-((S)-2-(methylamino)propanamido)-3-((2-oxo-2-(piperidin-1-yl)ethyl)thio)butanoyl)-3-(((R)-1,2,3,4-tetrahydronaphthalen-1-yl)carbamoyl)-1,2,3,4-tetrahydroisoquinolin-7-yl)terephthalamide]: the 50% inhibitory concentration (IC50) stood at 18 nM in assay [1] and 27 nM on His-BIR3 (241-356, XIAP).
With `CN[C@@H](C)C(=O)N[C@H](C(=O)N1Cc2cc(C(=O)Nc3ncc(C(=O)N[C@H]4C[C@@H](C(=O)N[C@@H]5CCCc6ccccc65)N(C(=O)[C@@H](NC(=O)[C@H](C)NC)C(C)(C)C)C4)s3)ccc2C[C@H]1C(=O)N[C@@H]1CCCc2ccccc21)C(C)(C)C` [Example 21, (S)-2-((S)-3,3-Dimethyl-2-((S)-2-(methylamino)propanamido)butanoyl)-N^7-(5-(((3S,5S)-1-((S)-3,3-dimethyl-2-((S)-2-(methylamino)propanamido)butanoyl)-5-(((R)-1,2,3,4-tetrahydronaphthalen-1-yl)carbamoyl)pyrrolidin-3-yl)carbamoyl)thiazol-2-yl)-N^3-((R)-1,2,3,4-tetrahydronaphthalen-1-yl)-1,2,3,4-tetrahydroisoquinoline-3,7-dicarboxamide], the IC50 in assay [1] came out at 6 nM; against His-BIR3 (241-356, XIAP), 17 nM.
The corresponding values for `CN[C@@H](C)C(=O)N[C@H](C(=O)N1C[C@@H](NC(=O)c2ccc(C(=O)Nc3ccc4c(c3)CN(C(=O)[C@@H](NC(=O)[C@H](C)NC)C(C)(C)SCC(=O)N(C)Cc3cccc(F)c3)[C@H](C(=O)N[C@@H]3CCCc5ccccc53)C4)cc2)C[C@H]1C(=O)N[C@@H]1CCCc2ccccc21)C(C)(C)C` [Example 62, N^1-((3S,5S)-1-((S)-3,3-Dimethyl-2-((S)-2-(methylamino)propanamido)butanoyl)-5-(((R)-1,2,3,4-tetrahydronaphthalen-1-yl)carbamoyl)pyrrolidin-3-yl)-N^4-((S)-2-((R)-3-((2-((3-fluorobenzyl)(methyl)amino)-2-oxoethyl)thio)-3-methyl-2-((S)-2-(methylamino)propanamido)butanoyl)-3-(((R)-1,2,3,4-tetrahydronaphthalen-1-yl)carbamoyl)-1,2,3,4-tetrahydroisoquinolin-7-yl)terephthalamide] are 58 nM and 73 nM.
The corresponding values for `CCN[C@@H](C)C(=O)N[C@H](C(=O)N1Cc2cc(OCc3ccc(C(=O)NC4C[C@@H](C(=O)NC5CCCc6ccccc65)N(C(=O)[C@@H](NC(=O)[C@H](C)NC)C(C)(C)C)C4)cc3)ccc2C[C@H]1C(=O)NC1CCCc2ccccc21)C(C)(C)C` (stereo partly drawn) [Example 39] are 65 nM and 89 nM.
Taken in the same sequence, the figures for `CN[C@@H](C)C(=O)N[C@H](C(=O)N1Cc2cc(NC(=O)c3cccc4c3ccn4C(=O)N[C@H]3C[C@@H](C(=O)N[C@@H]4CCCc5ccccc54)N(C(=O)[C@@H](NC(=O)[C@H](C)NC)C(C)(C)C)C3)ccc2C[C@H]1C(=O)N[C@H](C)c1ccccc1F)C(C)(C)C` [Example 51] were 27 nM and 54 nM.

For the origin of these results see patent US9783573B2, “IAP antagonists” (BRISTOL-MYERS SQUIBB COMPANY, priority 2012, dated 2017).
